Broadly, the GI50 is the concentration at which growth is held to half of that of the control.

The values below come from ChEMBL document CHEMBL1201862, “PubChem BioAssay data set” (2004).

Molecules are shown by their SMILES.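 Step 1: Grow cells in 96-well plates. Step 2: Expose to compound for 48 hours at 5 concentrations. Step 3: Interpolate endpoints linearly; if unreached, use highest concentration. GI50 marks 50% less growth.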 Activity calls are given as the source filed them. Rule as the data show it: active = GI50 up to about 1.1 µM and inactive = higher.

Among the test systems are DLD-1; HCC 2998; HCT-116; HCT-15; HOP-92; KM12; OVCAR-4; RPMI-8226; SF-268; SF-295; SK-MEL-2; SK-MEL-5; SNB-75; UACC-257; UACC-62.
What all share (experiment): DTP human tumour cell line panel, 48 h

Turning to `O=C1c2ccccc2C(=O)C1C(c1ccc([N+](=O)[O-])cc1)C1C(=O)c2ccccc2C1=O`, the GI50 with DLD-1 was 34.8 µM (inactive); in the assay on HCC 2998, > 100 µM (inactive); in the assay on HCT-116, 24.3 µM (inactive); in the assay with HCT-15, 63.1 µM; in the assay with HOP-92 it was 36.2 µM (inactive); with KM12, 90.8 µM (inactive). For the same compound, the GI50 was > 100 µM (inactive) in the assay with OVCAR-4; 54.5 µM (inactive) in the assay with RPMI-8226; 24.9 µM (inactive) with SF-268; > 100 µM (inactive) with SF-295; 91 µM (inactive) in the assay with SK-MEL-2; > 100 µM (inactive) in the assay on SK-MEL-5. Also, the GI50 in the assay on SNB-75 is 38.6 µM (inactive); in the assay on UACC-257, 33.7 µM (inactive); with UACC-62 it was 32.6 µM (inactive).
Take `O=c1nc(NC(c2ccccc2)(c2ccccc2)c2ccccc2)ccn1CCNCCn1ccc(NC(c2ccccc2)(c2ccccc2)c2ccccc2)nc1=O`: the GI50 with DLD-1 was 6.53 µM (inactive); in the assay with HCC 2998 it was 3.96 µM (inactive); in the assay with HCT-116, 3.92 µM (inactive); in the assay on HCT-15, over 100 µM; in the assay with HOP-92, 5.45 µM (inactive); with KM12 it was 3.44 µM (inactive). The GI50 in the assay on OVCAR-4 was 14.2 µM (inactive); in the assay on RPMI-8226 it was 2.55 µM (inactive); in the assay with SF-268, 4.84 µM (inactive); with SF-295 it was 11.5 µM (inactive); with SK-MEL-2 it was 2.66 µM (inactive); in the assay with SK-MEL-5, 5.48 µM (inactive). The GI50 is 20.2 µM (inactive) with SNB-75, 5.82 µM (inactive) with UACC-257 and 4.42 µM (inactive) in the assay on UACC-62.
For the compound `CCOC(=O)CC[C@H](NC(=O)c1nc[nH]c1[N+](=O)[O-])C(=O)OCC`, the GI50 in the assay with DLD-1 is > 100 µM (inactive); in the assay on HCC 2998, > 100 µM (inactive); with HCT-116, > 100 µM (inactive); in the assay with HCT-15, over 100 µM; in the assay with HOP-92, > 100 µM (inactive); in the assay with KM12 it was > 100 µM (inactive). Moreover, the GI50 with OVCAR-4, with RPMI-8226, in the assay with SF-268, in the assay on SF-295, in the assay with SK-MEL-2 and in the assay on UACC-257 was > 100 µM (inactive) in each case. Also, in the assay on UACC-62, the GI50 was > 100 µM (inactive).
For `O=C(CCc1nnc(S)[nH]1)Nc1ccccc1Cl`, the GI50 in the assay on DLD-1 was > 100 µM (inactive); in the assay on HCC 2998, > 100 µM (inactive); in the assay on HCT-116, > 100 µM (inactive); with HCT-15 it was 20.2 µM; in the assay on HOP-92, > 100 µM (inactive); in the assay on KM12 it was > 100 µM (inactive). In addition, the GI50 in the assay on OVCAR-4, in the assay with RPMI-8226, with SF-268, with SF-295, with SK-MEL-2 and with SK-MEL-5 was > 100 µM (inactive) throughout. The GI50 in the assay on SNB-75, with UACC-257 and with UACC-62 was > 100 µM (inactive) each time.
Consider `N#C/C(c1nc2ccccc2[nH]1)=c1\s/c(=C/c2ccc(Cl)cc2)c(=O)n1-c1ccccc1`, for which the GI50 in the assay on DLD-1 is > 100 µM (inactive); in the assay on HCC 2998, > 100 µM (inactive); in the assay on HCT-116, > 100 µM (inactive); with HCT-15, over 100 µM; in the assay on HOP-92, > 100 µM (inactive); with KM12, > 100 µM (inactive). Besides, the GI50 with OVCAR-4 was > 100 µM (inactive); with RPMI-8226, > 100 µM (inactive); in the assay on SF-268, > 100 µM (inactive); in the assay on SK-MEL-2 it was > 100 µM (inactive); in the assay on SK-MEL-5 it was > 100 µM (inactive); in the assay on SNB-75 it was 37.3 µM (inactive). For the same compound, the GI50 in the assay with UACC-257 and with UACC-62 was > 100 µM (inactive) in each case.
`CCOC(=O)/C(Br)=C1\OC(=O)c2ccccc2-c2ccccc21`: the GI50 with DLD-1 is 91.6 µM (inactive); in the assay with HCC 2998 it was 49.2 µM (inactive); with HCT-116, 43.3 µM (inactive); in the assay with HCT-15, 48.4 µM; in the assay on HOP-92, 24.3 µM (inactive); in the assay with KM12, 34.7 µM (inactive). Besides, the GI50 in the assay with RPMI-8226 was 27.9 µM (inactive); in the assay with SF-268, 43.8 µM (inactive); in the assay on SF-295, 36.5 µM (inactive); in the assay on SK-MEL-2, 64 µM (inactive); with SK-MEL-5, 37.1 µM (inactive); in the assay with SNB-75 it was 26.4 µM (inactive). Moreover, the GI50 in the assay with UACC-257 is 58.5 µM (inactive); in the assay with UACC-62, 44.4 µM (inactive).
`c1ccc2c3c([nH]c2c1)C1(CCCCC1)c1c([nH]c2ccccc12)C31CCCCC1`: the GI50 in the assay with DLD-1 was 96.2 µM (inactive); in the assay on HCC 2998 it was 32.3 µM (inactive); in the assay on HCT-116 it was 15.7 µM (inactive); with HCT-15, over 100 µM; in the assay with HOP-92 it was 20.4 µM (inactive); in the assay with KM12 it was > 100 µM (inactive). For the same compound, the GI50 in the assay with OVCAR-4 was 10.6 µM (inactive); in the assay with RPMI-8226, 56.8 µM (inactive); in the assay on SF-268 it was 23.6 µM (inactive); in the assay on SF-295 it was 24.7 µM (inactive); in the assay with SK-MEL-2, 18.8 µM (inactive); in the assay on SK-MEL-5 it was 26.2 µM (inactive). The GI50 was 15.9 µM (inactive) with SNB-75, 50.4 µM (inactive) with UACC-257 and 23.9 µM (inactive) in the assay on UACC-62.
For `COC(=O)C(C(=O)c1ccccc1)C(C(=O)C(=O)Nc1ccc(OC)cc1OC)C(=O)C(=O)c1ccc(C)cc1` (stereo not given), the GI50 in the assay with DLD-1 is > 100 µM (inactive); in the assay on HCC 2998, > 100 µM (inactive); in the assay with HCT-116 it was > 100 µM (inactive); in the assay on HCT-15 it was over 100 µM; in the assay with KM12 it was > 100 µM (inactive); with OVCAR-4 it was > 100 µM (inactive). Besides, the GI50 in the assay with RPMI-8226, with SF-268, with SF-295, in the assay with SK-MEL-2, in the assay with SK-MEL-5 and with SNB-75 was > 100 µM (inactive) each time. The GI50 in the assay on UACC-257 and in the assay on UACC-62 was > 100 µM (inactive) in each case.
With `CN(C)C(=S)/N=c1\ss/c(=N\c2ccccc2)n1-c1ccccc1`, the GI50 in the assay on DLD-1 was 28.4 µM (inactive); in the assay on HCC 2998, 18.7 µM (inactive); with HCT-15, 23.2 µM; in the assay with HOP-92, 12.5 µM (inactive); in the assay with OVCAR-4, 0.275 µM (active); with SF-268, 21.6 µM (inactive). The GI50 in the assay with SF-295 was 28.6 µM (inactive); with SK-MEL-2, 29.5 µM (inactive); in the assay on SNB-75 it was 14.8 µM (inactive); with UACC-257 it was 24.2 µM (inactive).
Regarding `OC1OCC(COc2cc(Cl)c(Cl)cc2Cl)OC1O` (stereo not given), the GI50 was 44.2 µM (inactive) with DLD-1; 30.4 µM (inactive) with HCC 2998; 18.9 µM (inactive) in the assay with HCT-116; 19.8 µM in the assay on HCT-15; 56.1 µM (inactive) in the assay with HOP-92; 35.6 µM (inactive) in the assay with KM12. Also, the GI50 was 31.8 µM (inactive) in the assay with OVCAR-4; 26.7 µM (inactive) with RPMI-8226; 68.2 µM (inactive) in the assay with SF-268; 45.8 µM (inactive) in the assay with SF-295; 39.5 µM (inactive) in the assay with SK-MEL-5; 26.2 µM (inactive) in the assay on SNB-75. Moreover, the GI50 in the assay with UACC-257 is 35.9 µM (inactive); in the assay with UACC-62, 33 µM (inactive).
On to `NNC(=O)CCC(=O)NC1C2CC3CC(C2)CC1C3` (stereo not given), for which the GI50 in the assay on DLD-1 is > 100 µM (inactive); with HCC 2998 it was > 100 µM (inactive); with HCT-116, > 100 µM (inactive); in the assay with HCT-15, over 100 µM; with HOP-92, > 100 µM (inactive); in the assay with KM12 it was > 100 µM (inactive). Moreover, the GI50 in the assay with OVCAR-4, in the assay with RPMI-8226, in the assay with SF-268, in the assay on SF-295, in the assay on SK-MEL-2 and with SK-MEL-5 was > 100 µM (inactive) throughout. The GI50 with SNB-75, in the assay with UACC-257 and with UACC-62 was > 100 µM (inactive) each time.
In the case of `COc1ccc(OCC(=O)O)c2c1CCC(C(C)C)C2=O` (stereo not given), the GI50 was > 100 µM (inactive) with DLD-1; > 100 µM (inactive) with HCC 2998; > 100 µM (inactive) in the assay with HCT-116; 80.2 µM (inactive) in the assay on HOP-92; > 100 µM (inactive) in the assay with KM12; > 100 µM (inactive) in the assay with OVCAR-4. Further, the GI50 with RPMI-8226, in the assay with SF-295, in the assay with SK-MEL-2, with SK-MEL-5, in the assay with UACC-257 and in the assay with UACC-62 was > 100 µM (inactive) in each case.
Regarding `CC(=O)OCC1OC(OC2CC3C(C)(C)C(OC(C)=O)CC[C@]3(C)C3CCC45CC4(CC[C@H]5C(C)CC(O)[C@@H](O)C(C)(C)O)[C@]23C)C(O)C(O)C1O` (stereo not given in full), the GI50 in the assay with DLD-1 is 7.41 µM (inactive); in the assay on HCC 2998, 6.84 µM (inactive); in the assay with HCT-116, 7.64 µM (inactive); in the assay with HCT-15 it was 7.64 µM; in the assay on HOP-92 it was 7.01 µM (inactive); with KM12, 7.85 µM (inactive). The GI50 is 6.67 µM (inactive) in the assay on OVCAR-4; 0.173 µM (active) in the assay with RPMI-8226; 8.11 µM (inactive) in the assay with SF-268; 7.93 µM (inactive) in the assay on SF-295; 9.38 µM (inactive) in the assay on SK-MEL-2; 7.13 µM (inactive) in the assay with SK-MEL-5. Moreover, the GI50 with SNB-75 is 6.18 µM (inactive); with UACC-257, 7.53 µM (inactive); in the assay on UACC-62, 6.25 µM (inactive).
On to `CC1CC[C@]2(C(=O)O)CCC3(C)C(=CCC4[C@@]5(C)CC[C@H](OS(=O)(=O)c6ccccc6)C(C)(C)C5CC[C@]43C)[C@@H]2[C@H]1C` (stereo not given in full), for which the GI50 with DLD-1 was 82 µM (inactive); in the assay on HCC 2998, 63.8 µM (inactive); in the assay with HCT-116 it was 27.2 µM (inactive); in the assay on HOP-92, > 100 µM (inactive); in the assay on KM12, > 100 µM (inactive); in the assay with OVCAR-4, > 100 µM (inactive). Besides, the GI50 with RPMI-8226 is 35 µM (inactive); with SF-268 it was > 100 µM (inactive); in the assay on SF-295, > 100 µM (inactive); in the assay with SK-MEL-2 it was 48.9 µM (inactive); in the assay with SK-MEL-5 it was > 100 µM (inactive); in the assay with SNB-75, > 100 µM (inactive). Further, the GI50 in the assay on UACC-257 and in the assay on UACC-62 was > 100 µM (inactive) in each case.
